Laboratory results as given in ChEMBL document CHEMBL3526091, “Pharmacokinetics, metabolism, and excretion of the glycogen synthase kinase-3 inhibitor LY2090314 in rats, dogs, and humans: a case study in rapid clearance by extensive metabolism with low circulating metabolite exposure” (Drug Metab Dispos, 2013).

Experiments:
[1] = Drug recovery in bile duct-cannulated Sprague-Dawley rat cage/carcass at 5 mg/kg, iv administered for 30 mins during 0 to 168 hrs time interval by radio analysis; format: ADME, organism-based; parameters: dose 5 mg/kg, dosed compound name [14C]LY2090314, route intravenous; conditions: in vivo
[2] = test system: Rattus norvegicus; assay: Total drug recovery in bile duct-cannulated Sprague-Dawley rat at 5 mg/kg, iv administered for 30 mins during 0 to 12 hrs time interval by radio analysis; format: ADME, organism-based; parameters: dose 5 mg/kg, dosed compound name [14C]LY2090314, route intravenous; conditions: in vivo
[3] = Drug metabolism in Mrp2 knockout Sprague-Dawley rat urine at 5 mg/kg, iv administered for 30 mins; format: ADME, organism-based; parameters: dose 5 mg/kg, dosed compound name LY2090314, route intravenous; conditions: in vivo, 0.5 h
[4] = Drug metabolism in Bcrp knockout Sprague-Dawley rat bile at 5 mg/kg, iv administered for 30 mins; format: ADME, organism-based; parameters: dose 5 mg/kg, dosed compound name LY2090314, route intravenous; conditions: in vivo, 0.5 h
[5] = Drug metabolism in Mrp2 knockout Sprague-Dawley rat bile at 5 mg/kg, iv administered for 30 mins; format: ADME, organism-based; parameters: dose 5 mg/kg, dosed compound name LY2090314, route intravenous; conditions: in vivo, 0.5 h
[6] = test system: Canis familiaris; assay: Total drug recovery in beagle dog at 5 mg/kg, iv administered for 30 mins during 48 hrs time interval by radio analysis; format: ADME, organism-based, Canis lupus familiaris; parameters: dose 5 mg/kg, dosed compound name [14C]LY2090314, route intravenous; conditions: in vivo
[7] = Drug recovery in Sprague-Dawley rat feces at 5 mg/kg, iv administered for 30 mins during 0 to 24 hrs time interval by radio analysis; format: ADME, organism-based; parameters: dose 5 mg/kg, dosed compound name [14C]LY2090314, route intravenous; conditions: in vivo
[8] = Drug recovery in Sprague-Dawley rat urine at 5 mg/kg, iv administered for 30 mins during 0 to 168 hrs time interval by radio analysis; format: ADME, organism-based; parameters: dose 5 mg/kg, dosed compound name [14C]LY2090314, route intravenous; conditions: in vivo
[9] = test system: Rattus norvegicus; assay: Drug recovery in Sprague-Dawley rat cage at 5 mg/kg, iv administered for 30 mins during 0 to 24 hrs time interval by radio analysis; format: ADME, organism-based; parameters: dose 5 mg/kg, dosed compound name [14C]LY2090314, route intravenous; conditions: in vivo
[10] = Drug recovery in Sprague-Dawley rat carcass at 5 mg/kg, iv administered for 30 mins during 0 to 168 hrs time interval by radio analysis; format: ADME, organism-based; parameters: dose 5 mg/kg, dosed compound name [14C]LY2090314, route intravenous; conditions: in vivo
[11] = test system: Rattus norvegicus; assay: Total drug recovery in Sprague-Dawley rat at 5 mg/kg, iv administered for 30 mins during 0 to 24 hrs time interval by radio analysis; format: ADME, organism-based; parameters: dose 5 mg/kg, dosed compound name [14C]LY2090314, route intravenous; conditions: in vivo
[12] = Tmax in beagle dog at 5 mg/kg, iv administered for 30 mins; format: ADME, organism-based, Canis lupus familiaris; parameters: dose 5 mg/kg, dosed compound name [14C]LY2090314, route intravenous; conditions: in vivo
[13] = Elimination half life in beagle dog at 5 mg/kg, iv administered for 30 mins; format: ADME, organism-based, Canis lupus familiaris; parameters: dose 5 mg/kg, dosed compound name [14C]LY2090314, route intravenous; conditions: in vivo, read-out: beta t1/2 (converted)
[14] = test system: Canis familiaris; assay: AUC (0 to infinity) in beagle dog assessed as total radioactivity at 5 mg/kg, iv administered for 30 mins; format: ADME, organism-based, Canis lupus familiaris, Plasma; parameters: dose 5 mg/kg, dosed compound name [14C]LY2090314, route intravenous, time infinity; conditions: in vivo, 0.5 h
[15] = test system: Canis familiaris; assay: Clearance in beagle dog assessed as total radioactivity at 5 mg/kg, iv administered for 30 mins; format: ADME, organism-based, Canis lupus familiaris; parameters: dose 5 mg/kg, dosed compound name [14C]LY2090314, route intravenous; conditions: in vivo, 0.5 h
[16] = test system: Rattus norvegicus; assay: Volume of distribution at steady state in Sprague-Dawley rat assessed as total radioactivity at 5 mg/kg, iv administered for 30 mins; format: ADME, organism-based; parameters: dose 5 mg/kg, dosed compound name [14C]LY2090314, route intravenous; conditions: in vivo, 0.5 h
[17] = test system: Rattus norvegicus; assay: Elimination half life in Sprague-Dawley rat assessed as total radioactivity at 5 mg/kg, iv administered for 30 mins; format: ADME, organism-based; parameters: dose 5 mg/kg, dosed compound name [14C]LY2090314, route intravenous; conditions: in vivo, 0.5 h
[18] = Drug recovery in beagle dog urine at 5 mg/kg, iv administered for 30 mins during 0 to 12 hrs by radio analysis; format: ADME, organism-based, Canis lupus familiaris; parameters: dose 5 mg/kg, dosed compound name [14C]LY2090314, route intravenous; conditions: in vivo
[19] = Cmax in cancer patient at 20 mg for 60 mins treated 1/1 cycle/day; format: ADME, organism-based; parameters: dose 20 mg, dosed compound name LY2090314; conditions: human, in vivo
[20] = Cmax in cancer patient at 40 mg for 60 mins treated 1/1 cycle/day; format: ADME, organism-based; parameters: dose 40 mg, dosed compound name LY2090314; conditions: human, in vivo
[21] = Cmax in cancer patient at 60 mg for 60 mins treated 1/1 cycle/day; format: ADME, organism-based; parameters: dose 60 mg, dosed compound name LY2090314; conditions: human, in vivo
[22] = Cmax in cancer patient at 120 mg for 60 mins treated 1/1 cycle/day; format: ADME, organism-based; parameters: dose 120 mg, dosed compound name LY2090314; conditions: human, in vivo
[23] = Cmax in cancer patient at 60 mg for 60 mins treated 1/8 cycle/day; format: ADME, organism-based; parameters: dose 60 mg, dosed compound name LY2090314; conditions: human, in vivo
[24] = Tmax in cancer patient at 20 mg for 60 mins treated 1/1 cycle/day; format: ADME, organism-based; parameters: dosed compound name LY2090314; conditions: human, in vivo
[25] = Tmax in cancer patient at 20 mg for 60 mins treated 2/1 cycle/day; format: ADME, organism-based; parameters: dosed compound name LY2090314; conditions: human, in vivo
[26] = Clearance in cancer patient kidney at 80 to 120 mg for 60 mins; format: ADME, organism-based; parameters: dosed compound name LY2090314; conditions: human, in vivo
[27] = Drug recovery in bile duct-intact Sprague-Dawley rat assessed as radioactivity in feces during 0 to 24 hrs at 5 mg/kg, iv for 30 mins; format: ADME, organism-based; parameters: dose 5 mg/kg, dosed compound name [14C]LY2090314, route intravenous; conditions: in vivo
[28] = Drug recovery in bile duct-cannulated Sprague-Dawley rat feces at 5 mg/kg, iv administered for 30 mins during 0 to 168 hrs time interval by radio analysis; format: ADME, organism-based; parameters: dose 5 mg/kg, dosed compound name [14C]LY2090314, route intravenous; conditions: in vivo
[29] = Drug recovery in bile duct-cannulated Sprague-Dawley rat urine at 5 mg/kg, iv administered for 30 mins during 0 to 12 hrs time interval by radio analysis; format: ADME, organism-based; parameters: dose 5 mg/kg, dosed compound name [14C]LY2090314, route intravenous; conditions: in vivo
[30] = Drug recovery in bile duct-cannulated Sprague-Dawley rat urine at 5 mg/kg, iv administered for 30 mins during 0 to 168 hrs time interval by radio analysis; format: ADME, organism-based; parameters: dose 5 mg/kg, dosed compound name [14C]LY2090314, route intravenous; conditions: in vivo
[31] = AUC (0 to infinity) in cancer patient at 80 mg for 60 mins treated 1/1 cycle/day; format: ADME, organism-based; parameters: dose 80 mg, time infinity, dosed compound name LY2090314; conditions: human, plasma
[32] = AUC (0 to infinity) in cancer patient at 10 mg for 60 mins treated 2/1 cycle/day; format: ADME, organism-based; parameters: dose 10 mg, time infinity, dosed compound name LY2090314; conditions: human, plasma
[33] = AUC (0 to infinity) in cancer patient at 20 mg for 60 mins treated 2/1 cycle/day; format: ADME, organism-based; parameters: dose 20 mg, time infinity, dosed compound name LY2090314; conditions: human, plasma
[34] = Clearance in cancer patient at 10 mg for 60 mins treated 1/1 cycle/day; format: ADME, organism-based; parameters: dosed compound name LY2090314; conditions: human, in vivo
[35] = Clearance in cancer patient at 40 mg for 60 mins treated 1/1 cycle/day; format: ADME, organism-based; parameters: dosed compound name LY2090314; conditions: human, in vivo
[36] = Clearance in cancer patient at 120 mg for 60 mins treated 1/1 cycle/day; format: ADME, organism-based; parameters: dosed compound name LY2090314; conditions: human, in vivo
[37] = Clearance in cancer patient at 10 mg for 60 mins treated 2/1 cycle/day; format: ADME, organism-based; parameters: dosed compound name LY2090314; conditions: human, in vivo
[38] = Clearance in cancer patient at 20 mg for 60 mins treated 2/1 cycle/day; format: ADME, organism-based; parameters: dosed compound name LY2090314; conditions: human, in vivo
[39] = Volume of distribution at steady state in cancer patient at 120 mg for 60 mins treated 1/8 cycle/day; format: ADME, organism-based; parameters: dosed compound name LY2090314; conditions: human, in vivo, read-out: Vdss
[40] = Half life in cancer patient at 10 mg for 60 mins treated 1/1 cycle/day; format: ADME, organism-based; parameters: dosed compound name LY2090314; conditions: human, in vivo
[41] = Half life in cancer patient at 20 mg for 60 mins treated 1/1 cycle/day; format: ADME, organism-based; parameters: dosed compound name LY2090314; conditions: human, in vivo
[42] = Half life in cancer patient at 40 mg for 60 mins treated 1/1 cycle/day; format: ADME, organism-based; parameters: dosed compound name LY2090314; conditions: human, in vivo
[43] = Half life in cancer patient at 20 mg for 60 mins treated 2/1 cycle/day; format: ADME, organism-based; parameters: dosed compound name LY2090314; conditions: human, in vivo
[44] = AUC (0 to infinity) in cancer patient at 40 mg for 60 mins treated 1/1 cycle/day; format: ADME, organism-based; parameters: dose 40 mg, time infinity, dosed compound name LY2090314; conditions: human, plasma
[45] = AUC (0 to infinity) in cancer patient at 60 mg for 60 mins treated 1/1 cycle/day; format: ADME, organism-based; parameters: dose 60 mg, time infinity, dosed compound name LY2090314; conditions: human, plasma

What does the source list for O=C1NC(=O)C(c2cnc3ccccn23)=C1c1cn2c3c(cc(F)cc13)CN(C(=O)N1CCCCC1)CC2 [LY-2090314]?
Radiolabel recovery [1]: 0.31%; Radiolabel recovery [2]: 87%; Drug metabolism [3]: metabolite_detected; Drug metabolism [4]: metabolite_detected; Drug metabolism [5]: metabolite_detected; Radiolabel recovery [6]: 88%; Radiolabel recovery [7]: 91.8%; Radiolabel recovery [8]: 0.8%; Radiolabel recovery [9]: 0.07%; Radiolabel recovery [10]: 0.07%; Radiolabel recovery [11]: 92.6%; Tmax [12]: 0.5 h; half-life [13]: 0.662 h; AUC [14]: 15067 ng·h/mL; CL [15]: 5.62 mL/min/kg; Vdss [16]: 4.489 L/kg; beta t1/2 [17]: 7.25 h; Radiolabel recovery [18]: 0.35%; Cmax [19]: 246 ng/mL; Cmax [20]: 603 ng/mL; Cmax [21]: 881 ng/mL; Cmax [22]: 1700 ng/mL; Cmax [23]: 1040 ng/mL; Tmax [24]: 0.98 h; Tmax [25]: 0.75 h; CL renal at 1 h [26]: 14.2 mL/min; Radiolabel recovery [27]: 2.43%; Radiolabel recovery [28]: 6.75%; Radiolabel recovery [29]: 1.82%; Radiolabel recovery [30]: 1.94%; AUC(0-inf) [31]: 1870 ng·h/mL; AUC(0-inf) [32]: 192 ng·h/mL; AUC(0-inf) [33]: 404 ng·h/mL; clearance [34]: 787 mL/min; clearance [35]: 688 mL/min; clearance [36]: 605 mL/min; clearance [37]: 870 mL/min; clearance [38]: 825 mL/min; Vd [39]: 143 L; half-life [40]: 2.24 h; half-life [41]: 1.84 h; half-life [42]: 3.15 h; half-life [43]: 1.92 h; AUC(0-inf) [44]: 976 ng·h/mL; AUC(0-inf) [45]: 1600 ng·h/mL
